Experimental data from patent publication US20230293404A1, “Compositions Comprising Natural Polymers and One or More (Bio)-Alkanediols” (Symrise AG, priority 2020, published 2023).
Each block holds one molecule with its values, some of them ahead of it.

Tests used:
[1] = tested on: microbial load of natural polymers; assay: Microbial load of mixtures of natural polymers with alkanediols (plating, CFU count); type: cell-based, bacteria
Description: The following tests were performed to show the influence of different alkanediols on the microbial load of natural polymers.
A selection of natural polymers as specified in Table 1 was systematically analyzed in combination with different 1,2-alkanediols and 2,3-alkanediols (0.5%). The polymers were chosen to be representative from different polymer classes:
A mixture of the natural polymer (concentration as recommended by supplier) with water and 1,2-alkanediol (0.5%) or 2,3-alkanediol (0.5%) or a mixture of 1,2-alkanediol and 2,3-alkanediol (0.5% final concentration) was prepared, as representative of a cold formulation preparation processes, and directly sampled for determination of microbial load. Additionally, the mixtures were stored at 40° C. and again sampled for microbial load after 2 days and 7 days.
The microbial load of the mixtures was determined by plating 1000 μl (or respective dilutions of the material) on an agar plate based on universal bacterial growth medium (Caseinpepton-Sojamehlpepton-Bouillon, Merck 1.05459+Agar No. 1, Oxoid LP0011). The plates were then incubated at 37° C. for 5 days and then photo documented. In parallel, bacterial colonies were counted (CFU—colony forming units per ml).

[2] = Maximum solubility of alkanediols in water (visual assessment); type: physicochemical; conditions: assessed at ambient temperature after 24 h storage at 5° C.; visual observation
[3] = Physical state of alkanediols and alkanediol mixtures at RTP; type: physicochemical; conditions: at RTP (room temperature, normal pressure); FIG. 3 and FIG. 4
Text: The term “liquid alkanediol” within the context of the present invention means an alkanediol component which is liquid at room or ambient temperature and under normal pressure, i.e. standard RTP conditions.
FIG. 3 is a photograph showing from left to right samples of the liquid 1,2-pentanediol, 1,2-hexanediol, 1,2-heptanediol, 2,3-heptanediol, 2,3-octanediol and 2,3-undecanediol in comparison to the solid 1,2-octanediol, 1,2-undecanediol, 1,2-nonanediol and the liquid 2,3-nonanediol. The first six alkanediols are liquid at RTP, whereas 1,2-octanediol, 1,2-nonanediol and 1,2-undecanediol are solid substances at RTP; 2,3-nonanediol is also liquid at RTP.
FIG. 4 is a representative photograph of samples of mixtures of 1,2-alkanediols with the respective 2,3-alkanediol. All mixtures are liquid. They are shown in the following order: 1,2-heptanediol (95%)+2,3-heptanediol (5%), 1,2-octanediol (95%)+2,3-octanediol (5%), and 1,2-nonanediol (95%)+2,3-nonanediol (5%).

[4] = Covathick (2009, cellulose 0.5%) in water + 0.5% 1,2-alkanediol, 2 days storage at 40° C.
[5] = Covathick (2009, cellulose 0.5%) in water + 0.5% 1,2-alkanediol, 7 days storage at 40° C.
[6] = Covathick (2009, cellulose 0.5%) in water + 0.5% 1,2-alkanediol, fresh
[7] = Genuvisco (CG-131, carrageenan 0.5%) in water + 0.5% 1,2-alkanediol, 2 days storage at 40° C.
[8] = Genuvisco (CG-131, carrageenan 0.5%) in water + 0.5% 1,2-alkanediol, 7 days storage at 40° C.
[9] = Genuvisco (CG-131, carrageenan 0.5%) in water + 0.5% 1,2-alkanediol, fresh
[10] = Nativacare (5600, corn starch 3%) in water + 0.5% 1,2-alkanediol, 2 days storage at 40° C.
[11] = Nativacare (5600, corn starch 3%) in water + 0.5% 1,2-alkanediol, 7 days storage at 40° C.
[12] = Nativacare (5600, corn starch 3%) in water + 0.5% 1,2-alkanediol, fresh
[13] = Polycos-N 75 (guar gum 0.5%) in water + 0.5% 1,2-alkanediol, 2 days storage at 40° C.
[14] = Polycos-N 75 (guar gum 0.5%) in water + 0.5% 1,2-alkanediol, 7 days storage at 40° C.
[15] = Polycos-N 75 (guar gum 0.5%) in water + 0.5% 1,2-alkanediol, fresh
[16] = Table 4: Covathick (0.5%) in water + alkanediol or mixture, 0.5% total, 2 days storage at 40° C.
[17] = Table 4: Covathick (0.5%) in water + alkanediol or mixture, 0.5% total, 7 days storage at 40° C.
[18] = Table 4: Covathick (0.5%) in water + alkanediol or mixture, 0.5% total, fresh
[19] = Table 4: PolyCos N-75 (0.5%) in water + alkanediol or mixture, 0.5% total, fresh
[20] = Xanthan Gum (Rheocare XGN 0.5%) in water + 0.5% 1,2-alkanediol, 2 days storage at 40° C.
[21] = Xanthan Gum (Rheocare XGN 0.5%) in water + 0.5% 1,2-alkanediol, fresh
[22] = Covathick (0.5%) in water + 0.5% 2,3-alkanediol, 2 days storage at 40° C.
[23] = Covathick (0.5%) in water + 0.5% 2,3-alkanediol, 7 days storage at 40° C.
[24] = Covathick (0.5%) in water + 0.5% 2,3-alkanediol, fresh
[25] = Genuvisco (0.5%) in water + 0.5% 2,3-alkanediol, 2 days storage at 40° C.
[26] = Genuvisco (0.5%) in water + 0.5% 2,3-alkanediol, 7 days storage at 40° C.
[27] = Genuvisco (0.5%) in water + 0.5% 2,3-alkanediol, fresh
[28] = Polycos-N 75 (0.5%) in water + 0.5% 2,3-alkanediol, fresh

Structure (SMILES): CCCCCC(O)CO (stereo not drawn) [1,2-heptanediol]
Bacterial load (colony forming units) [1, 4]: 0 CFU per ml
Bacterial load (colony forming units) [1, 5]: 0 CFU per ml
Bacterial load (colony forming units) [1, 6]: 4 CFU per ml
Bacterial load (colony forming units) [1, 7]: 0 CFU per ml
Bacterial load (colony forming units) [1, 8]: 0 CFU per ml
Bacterial load (colony forming units) [1, 9]: 0 CFU per ml
Bacterial load (colony forming units) [1, 10]: 0 CFU per ml
Bacterial load (colony forming units) [1, 11]: 0 CFU per ml
Bacterial load (colony forming units) [1, 12]: 0 CFU per ml
Bacterial load (colony forming units) [1, 13]: 0 CFU per ml
Bacterial load (colony forming units) [1, 14]: 0 CFU per ml
Bacterial load (colony forming units) [1, 15]: 5 CFU per ml
Bacterial load (colony forming units) [1, 16]: 0 CFU per mL
Bacterial load (colony forming units) [1, 17]: 0 CFU per mL
Bacterial load (colony forming units) [1, 18]: 4 CFU per mL
Bacterial load (colony forming units) ([1]; Table 4: PolyCos N-75 (0.5%) in water + alkanediol or mixture, 0.5% total, 2 days storage at 40° C.): 0 CFU per mL
Bacterial load (colony forming units) ([1]; Table 4: PolyCos N-75 (0.5%) in water + alkanediol or mixture, 0.5% total, 7 days storage at 40° C.): 0 CFU per mL
Bacterial load (colony forming units) [1, 19]: 5 CFU per mL
Bacterial load (colony forming units) ([1]; Table 4: Xanthan Gum (0.5%) in water + alkanediol or mixture, 0.5% total, 2 days storage at 40° C.): 2 CFU per mL
Bacterial load (colony forming units) ([1]; Table 4: Xanthan Gum (0.5%) in water + alkanediol or mixture, 0.5% total, 7 days storage at 40° C.): 0 CFU per mL
Bacterial load (colony forming units) ([1]; Table 5: Covathick (0.5 %) in water + alkanediol or mixture, 0.5% total, 2 days storage at 40° C.): 0 CFU per mL
Bacterial load (colony forming units) ([1]; Table 5: Covathick (0.5 %) in water + alkanediol or mixture, 0.5% total, 7 days storage at 40° C.): 0 CFU per mL
Bacterial load (colony forming units) ([1]; Table 5: Covathick (0.5 %) in water + alkanediol or mixture, 0.5% total, fresh): 4 CFU per mL
Bacterial load (colony forming units) ([1]; Table 5: PolyCos N-75 (0.5 %) in water + alkanediol or mixture, 0.5% total, 2 days storage at 40° C.): 0 CFU per mL
Bacterial load (colony forming units) ([1]; Table 5: PolyCos N-75 (0.5 %) in water + alkanediol or mixture, 0.5% total, 7 days storage at 40° C.): 0 CFU per mL
Bacterial load (colony forming units) ([1]; Table 5: PolyCos N-75 (0.5 %) in water + alkanediol or mixture, 0.5% total, fresh): 5 CFU per mL
Bacterial load (colony forming units) ([1]; Table 5: Xanthan Gum (0.5 %) in water + alkanediol or mixture, 0.5% total, 2 days storage at 40° C.): 2 CFU per mL
Bacterial load (colony forming units) ([1]; Table 5: Xanthan Gum (0.5 %) in water + alkanediol or mixture, 0.5% total, 7 days storage at 40° C.): 0 CFU per mL
Bacterial load (colony forming units) [1, 20]: 2 CFU per ml
Bacterial load (colony forming units) ([1]; Xanthan Gum (Rheocare XGN 0.5%) in water + 0.5% 1,2-alkanediol, 7 days storage at 40° C.): 0 CFU per ml
Activity to stabilize natural polymer solutions for storage by removing their microbial load (in words) ([1]; compared to 1,2-pentanediol and 1,2-hexanediol, Table 2): superior activity
Maximum solubility in water [2]: 2.5 % by weight
Physical state [3]: liquid

Structure (SMILES): CCCCC(O)CO (stereo not drawn) [1,2-hexanediol]
Bacterial load (colony forming units) [1, 4]: 0 CFU per ml
Bacterial load (colony forming units) [1, 5]: >13 CFU per ml
Bacterial load (colony forming units) [1, 6]: 3 CFU per ml
Bacterial load (colony forming units) [1, 8]: 0 CFU per ml
Bacterial load (colony forming units) [1, 9]: 3 CFU per ml
Bacterial load (colony forming units) [1, 10]: 0 CFU per ml
Bacterial load (colony forming units) [1, 11]: 0 CFU per ml
Bacterial load (colony forming units) [1, 12]: 1 CFU per ml
Bacterial load (colony forming units) [1, 13]: 19 CFU per ml
Bacterial load (colony forming units) [1, 14]: 2 CFU per ml
Bacterial load (colony forming units) [1, 15]: 9 CFU per ml
Bacterial load (colony forming units) [1, 20]: 1 CFU per ml
Bacterial load (colony forming units) [1, 21]: 7 CFU per ml
Maximum solubility in water [2]: 50 % by weight
Physical state [3]: liquid

Maximum solubility in water [2]: 0.1 % by weight
Physical state [3]: solid
Structure (SMILES): CCCCCCCC(O)CO (stereo not drawn) [1,2-nonanediol]

Maximum solubility in water [2]: 0.5 % by weight
Physical state [3]: solid
Structure (SMILES): CCCCCCC(O)CO (stereo not drawn) [1,2-octanediol]

Structure (SMILES): CCCC(O)CO (stereo not drawn) [1,2-pentanediol]
Bacterial load (colony forming units) [1, 4]: >13 CFU per ml
Bacterial load (colony forming units) [1, 5]: 4 CFU per ml
Bacterial load (colony forming units) [1, 6]: 84 CFU per ml
Bacterial load (colony forming units) [1, 7]: 2800 CFU per ml
Bacterial load (colony forming units) [1, 8]: 0 CFU per ml
Bacterial load (colony forming units) [1, 9]: 35 CFU per ml
Bacterial load (colony forming units) [1, 10]: 27 CFU per ml
Bacterial load (colony forming units) [1, 11]: >1000 CFU per ml
Bacterial load (colony forming units) [1, 12]: 0 CFU per ml
Bacterial load (colony forming units) [1, 14]: 13 CFU per ml
Bacterial load (colony forming units) [1, 15]: 13 CFU per ml
Bacterial load (colony forming units) [1, 21]: >249 CFU per ml
Maximum solubility in water [2]: 50 % by weight
Physical state [3]: liquid

Physical state [3]: solid
Structure (SMILES): CCCCCCCCCC(O)CO (stereo not drawn) [1,2-undecanediol]

Structure (SMILES): CCCCC(O)C(C)O (stereo not drawn) [2,3-heptanediol]
Bacterial load (colony forming units) [1, 22]: 0 CFU per mL
Bacterial load (colony forming units) [1, 23]: 0 CFU per mL
Bacterial load (colony forming units) [1, 24]: 5 CFU per mL
Bacterial load (colony forming units) [1, 25]: 1 CFU per mL
Bacterial load (colony forming units) [1, 26]: 1 CFU per mL
Bacterial load (colony forming units) [1, 27]: 5 CFU per mL
Bacterial load (colony forming units) [1, 28]: 2 CFU per mL
Bacterial load (colony forming units) [1, 16]: 0 CFU per mL
Bacterial load (colony forming units) [1, 17]: 0 CFU per mL
Bacterial load (colony forming units) [1, 18]: 5 CFU per mL
Bacterial load (colony forming units) [1, 19]: 2 CFU per mL
Maximum solubility in water [2]: 3.6 % by weight
Physical state [3]: liquid

Maximum solubility in water [2]: 0.3 % by weight
Physical state [3]: liquid
Structure (SMILES): CCCCCCC(O)C(C)O (stereo not drawn) [2,3-nonanediol]

Structure (SMILES): CCCCCCCCC(O)C(C)O (stereo not drawn) [2,3-undecanediol]
Bacterial load (colony forming units) [1, 22]: 0 CFU per mL
Bacterial load (colony forming units) [1, 23]: 0 CFU per mL
Bacterial load (colony forming units) [1, 24]: 0 CFU per mL
Bacterial load (colony forming units) [1, 25]: 0 CFU per mL
Bacterial load (colony forming units) [1, 26]: 0 CFU per mL
Bacterial load (colony forming units) [1, 27]: 0 CFU per mL
Bacterial load (colony forming units) ([1]; Polycos-N 75 (0.5%) in water + 0.5% 2,3-alkanediol, 2 days storage at 40° C.): 0 CFU per mL
Bacterial load (colony forming units) ([1]; Polycos-N 75 (0.5%) in water + 0.5% 2,3-alkanediol, 7 days storage at 40° C.): 0 CFU per mL
Bacterial load (colony forming units) [1, 28]: 0 CFU per mL
Bacterial load (colony forming units) ([1]; Xanthan Gum (0.5%) in water + 0.5% 2,3-alkanediol, 2 days storage at 40° C.): 0 CFU per mL
Bacterial load (colony forming units) ([1]; Xanthan Gum (0.5%) in water + 0.5% 2,3-alkanediol, 7 days storage at 40° C.): 0 CFU per mL
Bacterial load (colony forming units) ([1]; Xanthan Gum (0.5%) in water + 0.5% 2,3-alkanediol, fresh): 0 CFU per mL
Effect on the microbial load of the natural polymer solutions (in words) ([1]; directly after preparation of the mixtures as well as after 7 days storage, Table 3): superior antimicrobial activity
Physical state [3]: liquid
